Results on 30 molecules are retold here after US20100016343A1 (WYETH, priority 2008, published 2010).

For data set [1], the target named is T1, alpha3 (ganglionic) nACh receptors (Homo sapiens, UniProt P30926+P32297).
T1 construct: using the native SH-SY5Y cell line; endogenous in cells; host or cells: SH-SY5Y
The experiment in a line: calcium-monitoring FLIPR selectivity assay using the native SH-SY5Y cell line. The class given is cell-based. The note with it: read-out: Alpha 3 EC50. The source says:
Functional FLIPR assays were developed in order to test the selectivity of compounds against the alpha1 (muscular) and alpha3 (ganglionic) nACh receptors and the structurally related 5-HT3 receptor. […] In order to test selectivity against the 5-HT3 receptor, a recombinant cell line was constructed expressing the human 5-HT3A receptor in HEK 293 cells and a calcium-monitoring FLIPR assay employed.

Data set [2] addresses CYP2D6 (Homo sapiens, UniProt P10635). The experiment in a line: CYP2D6 % inhibition. The format is in vitro ADME.
The target in data set [3] is T2, rat-alpha7-nAChR (Rattus norvegicus, UniProt Q05941).
T2 construct: expressed in transfected cells
T2 sequence (Q05941 23-502): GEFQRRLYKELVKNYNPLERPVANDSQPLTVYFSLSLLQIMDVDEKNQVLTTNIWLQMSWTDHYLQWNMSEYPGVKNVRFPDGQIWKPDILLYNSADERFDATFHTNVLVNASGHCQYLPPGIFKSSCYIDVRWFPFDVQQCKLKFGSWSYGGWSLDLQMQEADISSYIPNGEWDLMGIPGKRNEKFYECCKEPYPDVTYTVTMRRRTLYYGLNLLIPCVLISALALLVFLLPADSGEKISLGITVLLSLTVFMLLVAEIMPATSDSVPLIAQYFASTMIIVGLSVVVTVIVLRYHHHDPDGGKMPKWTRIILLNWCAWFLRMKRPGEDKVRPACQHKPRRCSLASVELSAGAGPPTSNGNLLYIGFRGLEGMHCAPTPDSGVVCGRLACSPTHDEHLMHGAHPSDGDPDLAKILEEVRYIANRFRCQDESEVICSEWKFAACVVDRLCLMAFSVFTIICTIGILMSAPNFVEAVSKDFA
In words: functional FLIPR assay, alpha7 nAChR stably expressed in GH4C1 cells. The class given is cell-based. From the text: Rat GH4C1 cells were then transfected with the rat receptor, cloned and analyzed for functional alpha7 nicotinic receptor expression employing a FLIPR assay to measure changes in intracellular calcium concentrations.
The FLIPR system allows the measurements of real time Ca^2+-concentration changes in living cells using a Ca^2+ sensitive fluorescence dye (such as Fluo4). This instrument enables the screening for agonists and antagonists for alpha 7 nAChR channels stably expressed in GH4C1 cells.
GH4C1 cells stably transfected with rat-alpha7-nAChR (see above) were used. These cells are poorly adherent and therefore pretreatment of flasks and plates with poly-D-lysine was carried out. Cells are grown in 150 cm^2 T-flasks, filled with 30 ml of medium at 37° C. and 5% CO2.
EC50 and IC50 values were calculated using the IDBS XLfit4.1 software package employing a sigmoidal concentration-response (variable slope) equation:
Y=Bottom+((Top−Bottom)/(1+((EC50/X)̂HillSlope))
Certain compounds of the present disclosure were tested using the functional FLIPR primary screening assay employing the stable recombinant GH4C1 cell line expressing the alpha7 nAChR.

For data set [4], the target named is CYP2C9 (Homo sapiens, UniProt P11712). The experiment in a line: CYP2C9 % inhibition. The class given is in vitro ADME.
Sequence of CYP2C9 (P11712 whole entry, species assumed): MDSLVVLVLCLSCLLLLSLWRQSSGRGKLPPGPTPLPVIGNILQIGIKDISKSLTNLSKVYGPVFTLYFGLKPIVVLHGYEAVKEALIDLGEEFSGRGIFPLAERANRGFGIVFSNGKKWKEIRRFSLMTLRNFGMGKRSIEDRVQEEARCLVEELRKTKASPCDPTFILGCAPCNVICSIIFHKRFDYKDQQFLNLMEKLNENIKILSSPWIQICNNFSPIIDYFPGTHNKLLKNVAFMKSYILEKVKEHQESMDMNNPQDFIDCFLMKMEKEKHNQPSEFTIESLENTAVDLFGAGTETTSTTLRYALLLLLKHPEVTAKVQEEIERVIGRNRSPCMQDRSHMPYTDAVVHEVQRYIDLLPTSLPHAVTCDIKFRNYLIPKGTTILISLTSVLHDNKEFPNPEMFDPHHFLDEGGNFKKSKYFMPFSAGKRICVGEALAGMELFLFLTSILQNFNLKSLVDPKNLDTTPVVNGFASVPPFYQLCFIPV
In data set [5] the target is CYP3A4 (Homo sapiens, UniProt P08684). In words: CYP3A4 % inhibition. The class given is in vitro ADME.
Sequence of CYP3A4 (P08684 whole entry, species assumed): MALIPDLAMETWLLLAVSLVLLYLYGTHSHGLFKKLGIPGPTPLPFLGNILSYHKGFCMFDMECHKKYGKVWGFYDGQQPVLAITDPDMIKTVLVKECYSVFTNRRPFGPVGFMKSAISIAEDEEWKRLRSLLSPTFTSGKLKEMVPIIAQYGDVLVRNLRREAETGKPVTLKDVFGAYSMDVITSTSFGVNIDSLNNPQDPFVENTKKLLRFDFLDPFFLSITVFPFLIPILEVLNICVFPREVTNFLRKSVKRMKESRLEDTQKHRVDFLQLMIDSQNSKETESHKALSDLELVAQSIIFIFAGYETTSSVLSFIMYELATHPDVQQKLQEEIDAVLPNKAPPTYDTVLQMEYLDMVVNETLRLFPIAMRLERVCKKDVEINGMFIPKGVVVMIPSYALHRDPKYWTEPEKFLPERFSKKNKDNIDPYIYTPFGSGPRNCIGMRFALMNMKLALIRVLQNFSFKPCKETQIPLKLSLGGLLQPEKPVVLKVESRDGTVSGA
[6] abbreviates: GH4C1 cell line expressing the alpha7 nAChR, concentration-response curves, read-out: Alpha 7 EC50.

Like-named read-outs stand apart in the source and are kept apart here.

T1 sequence (P32297 32-505): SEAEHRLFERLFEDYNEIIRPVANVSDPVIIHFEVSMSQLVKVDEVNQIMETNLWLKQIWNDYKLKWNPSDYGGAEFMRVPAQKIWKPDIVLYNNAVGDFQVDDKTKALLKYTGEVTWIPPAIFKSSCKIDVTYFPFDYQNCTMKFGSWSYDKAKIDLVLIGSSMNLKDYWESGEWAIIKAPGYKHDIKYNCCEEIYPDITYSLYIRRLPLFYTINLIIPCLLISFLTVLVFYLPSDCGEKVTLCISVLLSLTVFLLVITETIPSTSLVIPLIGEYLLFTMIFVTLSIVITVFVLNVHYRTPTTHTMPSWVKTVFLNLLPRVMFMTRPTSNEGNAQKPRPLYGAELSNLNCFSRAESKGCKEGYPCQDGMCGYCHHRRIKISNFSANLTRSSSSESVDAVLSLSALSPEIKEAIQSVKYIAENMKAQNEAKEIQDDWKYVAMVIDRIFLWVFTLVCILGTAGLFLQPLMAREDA
T1 sequence (P30926 22-498): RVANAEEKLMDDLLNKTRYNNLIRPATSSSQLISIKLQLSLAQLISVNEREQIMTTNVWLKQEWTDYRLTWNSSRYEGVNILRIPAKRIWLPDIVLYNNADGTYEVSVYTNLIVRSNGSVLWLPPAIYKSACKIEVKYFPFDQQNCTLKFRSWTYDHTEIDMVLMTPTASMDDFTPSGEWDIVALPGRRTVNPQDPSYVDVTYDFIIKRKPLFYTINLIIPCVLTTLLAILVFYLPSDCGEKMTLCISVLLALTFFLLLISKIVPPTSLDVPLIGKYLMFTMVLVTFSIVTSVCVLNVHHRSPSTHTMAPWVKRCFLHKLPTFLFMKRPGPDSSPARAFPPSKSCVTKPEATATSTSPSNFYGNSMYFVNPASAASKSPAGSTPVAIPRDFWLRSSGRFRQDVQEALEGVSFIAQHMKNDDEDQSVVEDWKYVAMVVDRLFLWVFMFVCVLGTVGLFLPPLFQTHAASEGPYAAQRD
Sequence of CYP2D6 (P10635 whole entry, species assumed): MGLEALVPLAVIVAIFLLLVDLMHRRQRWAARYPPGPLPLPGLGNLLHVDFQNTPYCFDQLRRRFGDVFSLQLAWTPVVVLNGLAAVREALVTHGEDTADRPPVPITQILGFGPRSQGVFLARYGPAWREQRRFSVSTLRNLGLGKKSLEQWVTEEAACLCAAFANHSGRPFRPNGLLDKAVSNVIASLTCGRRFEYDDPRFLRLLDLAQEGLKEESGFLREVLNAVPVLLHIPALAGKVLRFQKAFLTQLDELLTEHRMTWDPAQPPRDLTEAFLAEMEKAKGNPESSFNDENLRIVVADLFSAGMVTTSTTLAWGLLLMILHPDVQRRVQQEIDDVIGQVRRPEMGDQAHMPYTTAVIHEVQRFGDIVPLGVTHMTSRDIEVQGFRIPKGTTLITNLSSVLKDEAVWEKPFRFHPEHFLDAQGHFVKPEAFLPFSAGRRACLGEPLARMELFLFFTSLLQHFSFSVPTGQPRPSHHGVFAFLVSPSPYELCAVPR

`O=C(NCCCCN1CCCCC1)Nc1ccc(-c2ccc(F)nc2)cc1`: the EC50 was found to be 1210 nM in data set [1] and 130 nM in data set [3] (setting [6]). In addition, the CYP2D6 % inhibition in data set [2] is 21%. Also, the CYP2C9 % inhibition in data set [4] was −18%. The CYP3A4 % inhibition in data set [5] is reported as −22%.
As for `COc1ncccc1-c1ccc(NC(=O)NCCCCN2CCCCC2)cn1` [drawing 62], the EC50 in data set [1] worked out at 15700 nM. Moreover, the CYP2D6 % inhibition in data set [2] was determined as 8%. For the same molecule, in data set [4], the CYP2C9 % inhibition is listed as −12%. Further, the CYP3A4 % inhibition in data set [5] is −4%.
`O=C(NCCCCN1CCCCC1)Nc1ccc(-c2ccncc2)nc1` registered a CYP2D6 % inhibition in data set [2] of 12%. The EC50 in data set [3] (setting [6]) came to 400 nM. Also, the CYP2C9 % inhibition in data set [4] is 1%. For the same molecule, in data set [5], the CYP3A4 % inhibition was −1%.
Consider `COc1ccc(F)c(-c2ccc(NC(=O)NCCCCN3CCCCC3)cn2)c1`, for which the EC50 in data set [1] is 4340 nM; in data set [3] (setting [6]), 80 nM. Also, in data set [2], the CYP2D6 % inhibition is listed as 18%. Besides, in data set [4], the CYP2C9 % inhibition is on record as 10%. For the same molecule, the CYP3A4 % inhibition in data set [5] turned out to be 43%.
In the case of `O=C(NCCCCN1CCCCC1)Nc1ccc(-c2cccs2)cc1`, the EC50 in data set [1] is 3560 nM; in data set [3] (setting [6]), 190 nM. The CYP2D6 % inhibition in data set [2] stood at 69%. Moreover, the CYP2C9 % inhibition in data set [4] was −5%. Moreover, the CYP3A4 % inhibition in data set [5] was 24%.
For `O=C(NCCCCN1CCCCC1)Nc1ccc(-c2cccc(F)c2)nc1`, in data set [2], the CYP2D6 % inhibition is given as 10%. Besides, the EC50 in data set [3] (setting [6]) is 180 nM. The CYP2C9 % inhibition in data set [4] came to 0%. Besides, the CYP3A4 % inhibition in data set [5] came to 26%.
As to `Cn1cc(-c2ccc(NC(=O)NCCCCN3CCCCC3)cc2)cn1`, the EC50 in data set [1] came to 5040 nM; in data set [3] (setting [6]), 130 nM. Moreover, the CYP2D6 % inhibition in data set [2] came out at 45%. Besides, the CYP2C9 % inhibition in data set [4] worked out at 9%. For the same molecule, the CYP3A4 % inhibition in data set [5] stood at 68%.
`O=C(NCCCCN1CCCCC1)Nc1ccc(-c2ccc3c(c2)OCO3)nc1` came in with a CYP2D6 % inhibition in data set [2] of 79%. Besides, the EC50 in data set [3] (setting [6]) was found to be 140 nM. Further, in data set [4], the CYP2C9 % inhibition came to 6%. Besides, the CYP3A4 % inhibition in data set [5] is reported as 65%.
For `O=C(NCCCC[N+]1([O-])CCCCC1)Nc1ccc(-c2ccc(F)cc2)nc1`, the 50% effective concentration (EC50) in data set [1] came to 9800 nM; in data set [3] (setting [6]), 460 nM.
In the case of `COc1ccc(-c2ccc(NC(=O)NCCCCN3CCCCC3)cc2)cc1`, the EC50 in data set [1] came out at 1770 nM; in data set [3] (setting [6]), 220 nM. Further, in data set [2], the CYP2D6 % inhibition is given as 97%. The CYP2C9 % inhibition in data set [4] is −14%. The CYP3A4 % inhibition in data set [5] is given as 32%.
For `O=C(NCCCCN1CCCCC1)Nc1ccc(-c2cccc(F)c2)cc1`, the EC50 amounted to 1780 nM in data set [1] and 110 nM in data set [3] (setting [6]). In data set [2], the CYP2D6 % inhibition amounted to 62%. The CYP2C9 % inhibition in data set [4] was −12%. For the same molecule, the CYP3A4 % inhibition in data set [5] was −21%.
Regarding `O=C(NCCCCN1CCCCC1)Nc1ccc(-c2ccccc2)cc1`, the EC50 in data set [1] came to 2840 nM; in data set [3] (setting [6]), 310 nM. In addition, the CYP2D6 % inhibition in data set [2] came out at 64%. Besides, the CYP2C9 % inhibition in data set [4] is 2%. Moreover, the CYP3A4 % inhibition in data set [5] worked out at 51%.
`O=C(NCCCCN1CCCCC1)Nc1ccc(-c2ccc(F)nc2)nc1` displayed a CYP2D6 % inhibition in data set [2] of 8%. Moreover, in data set [3] (setting [6]), the EC50 came out at 720 nM. Besides, the CYP2C9 % inhibition in data set [4] was −10%. The CYP3A4 % inhibition in data set [5] is recorded as −19%.
As to `O=C(NCCCCN1CCCCC1)Nc1ccc(-c2ccccc2F)nc1`, the EC50 amounted to 5550 nM in data set [1] and 200 nM in data set [3] (setting [6]). In addition, the CYP2D6 % inhibition in data set [2] was determined as 14%. For the same molecule, the CYP2C9 % inhibition in data set [4] is on record as −10%. Also, the CYP3A4 % inhibition in data set [5] is reported as −3%.
In the case of `COc1ccc(-c2ccc(NC(=O)NCCCCN3CCCCC3)cn2)cc1`, the EC50 was 4120 nM in data set [1] and 260 nM in data set [3] (setting [6]). In data set [2], this molecule returned a CYP2D6 % inhibition of 54%. The CYP2C9 % inhibition in data set [4] was −15%. The CYP3A4 % inhibition in data set [5] is −8%.
For `COc1ccccc1-c1ccc(NC(=O)NCCCCN2CCCCC2)cn1`, the figures for the EC50 in data set [1] and in data set [3] (setting [6]) were 3860 nM and 260 nM, respectively. The same molecule had a CYP2D6 % inhibition in data set [2] of 8%. In addition, the CYP2C9 % inhibition in data set [4] is reported as 6%. Moreover, the CYP3A4 % inhibition in data set [5] is recorded as 8%.
Take `COc1ccccc1-c1ccc(NC(=O)NCCCCN2CCCCC2)cc1`: the EC50 in data set [1] came to 1080 nM; in data set [3] (setting [6]) it was 170 nM. In data set [2], this molecule returned a CYP2D6 % inhibition of 38%. Also, the CYP2C9 % inhibition in data set [4] is on record as −2%. Also, the CYP3A4 % inhibition in data set [5] is on record as 5%.
Taken in the same sequence, the figures for `Cn1cc(-c2ccc(NC(=O)NCCCCN3CCCCC3)cn2)cn1` were above 30000 nM, 450 nM, 1%, 3% and −4%.
Taken in the same sequence, the figures for `O=C(NCCCCN1CCCCC1)Nc1ccc(-c2ccccc2)nc1` were 10100 nM, 90 nM, 6%, −4% and −21%.
In the case of `O=C(NCCCCN1CCCCC1)Nc1ccc(-c2ccc(F)cc2)nc1`, the EC50 in data set [1] worked out at 9530 nM.
Regarding `O=C(NCCCCN1CCCCC1)Nc1ccc(-c2cccnc2)nc1`, the results for the EC50 in data set [1] and in data set [3] (setting [6]) were 9880 nM and 590 nM, respectively. Besides, the CYP2D6 % inhibition in data set [2] stood at 22%. The CYP2C9 % inhibition in data set [4] is −3%. Further, in data set [5], the CYP3A4 % inhibition is reported as 0%.
The like results for `O=C(NCCCCN1CCCCC1)Nc1ccc(-c2ccncc2)cc1` were, in that order, 2950 nM, 180 nM, 48%, 6% and 17%.
The like results for `O=C(NCCCCN1CCCCC1)Nc1ccc(-c2ccccc2F)cc1` were, in that order, 1500 nM, 190 nM, 75%, −1% and −17%.
Taken in the same sequence, the figures for `O=C(NCCCCN1CCCCC1)Nc1ccc(-c2ccc3c(c2)OCO3)cc1` were 1720 nM, 100 nM, 97%, 0% and 74%.
In the case of `O=C(NCCCCN1CCCCC1)Nc1ccc(-c2ccc(F)cc2)cc1`, the EC50 worked out at 1730 nM in data set [1] and 220 nM in data set [3] (setting [6]). The molecule further returned a CYP2D6 % inhibition in data set [2] of 65%. The CYP2C9 % inhibition in data set [4] was −16%. Further, the CYP3A4 % inhibition in data set [5] is −13%.
As for `O=C(NCCCCN1CCCCC1)Nc1ccc(-c2cccs2)nc1`, the results for the EC50 in data set [1] and in data set [3] (setting [6]) were 8430 nM and 100 nM, respectively. In data set [2], this molecule returned a CYP2D6 % inhibition of 7%. For the same molecule, the CYP2C9 % inhibition in data set [4] is recorded as 2%. In data set [5], the CYP3A4 % inhibition stood at 2%.
For the molecule `COc1ccc(F)c(-c2ccc(NC(=O)NCCCCN3CCCCC3)cc2)c1`, the EC50 in data set [1] turned out to be 2320 nM; in data set [3] (setting [6]) it was 100 nM. In addition, the CYP2D6 % inhibition in data set [2] was 83%. In addition, the CYP2C9 % inhibition in data set [4] is reported as −26%. Also, the CYP3A4 % inhibition in data set [5] is listed as 51%.
For the molecule `O=C(NCCCCN1CCCCC1)Nc1ccc(-c2cccnc2)cc1`, the concentration giving a half-maximal response (EC50) is 3610 nM in data set [1] and 100 nM in data set [3] (setting [6]). This molecule also showed a CYP2D6 % inhibition in data set [2] of 72%. Moreover, the CYP2C9 % inhibition in data set [4] was −22%. For the same molecule, in data set [5], the CYP3A4 % inhibition was 2%.
Turning to `C[N+]1(C)CCN(c2ccccc2)CC1` [DMPP, reference compound], the EC50 in data set [3] (assay validation with agonists, alpha7 nAChR in GH4C1 cells, concentration range 0.001 to 30 microM, read-out: EC50) was determined as 980 ± 470 nM.
Turning to `COc1ncccc1-c1ccc(NC(=O)NCCCCN2CCCCC2)cn1` [drawing 63], in data set [1], the EC50 stood at 5670 nM. In data set [2], this molecule had a CYP2D6 % inhibition of 8%. For the same molecule, the CYP2C9 % inhibition in data set [4] is given as −36%. Besides, the CYP3A4 % inhibition in data set [5] is −21%.
